The target of experiment [1] is T1, Myotonin-protein kinase (Homo sapiens) (UniProt Q09013).
T1 sequence (whole entry): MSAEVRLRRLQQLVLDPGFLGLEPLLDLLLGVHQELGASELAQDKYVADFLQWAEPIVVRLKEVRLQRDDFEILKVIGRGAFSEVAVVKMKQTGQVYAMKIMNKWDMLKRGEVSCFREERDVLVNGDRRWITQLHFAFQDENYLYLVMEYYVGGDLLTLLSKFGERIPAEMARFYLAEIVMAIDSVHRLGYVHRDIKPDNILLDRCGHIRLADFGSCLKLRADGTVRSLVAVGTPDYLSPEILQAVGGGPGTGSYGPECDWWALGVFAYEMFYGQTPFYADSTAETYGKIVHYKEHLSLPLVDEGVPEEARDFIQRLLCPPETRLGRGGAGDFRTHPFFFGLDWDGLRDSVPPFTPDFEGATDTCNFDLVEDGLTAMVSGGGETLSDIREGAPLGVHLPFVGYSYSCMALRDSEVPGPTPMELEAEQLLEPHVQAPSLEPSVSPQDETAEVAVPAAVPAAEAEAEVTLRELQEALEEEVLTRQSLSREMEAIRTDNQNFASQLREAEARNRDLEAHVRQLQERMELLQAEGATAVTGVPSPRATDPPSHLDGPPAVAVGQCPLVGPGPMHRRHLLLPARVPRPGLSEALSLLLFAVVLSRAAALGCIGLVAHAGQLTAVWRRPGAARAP
Conditions: at 10 µM.

Experiment [2] deals with T2, Serine/threonine-protein kinase NLK (Homo sapiens) (UniProt Q9UBE8).
T2 sequence (whole entry): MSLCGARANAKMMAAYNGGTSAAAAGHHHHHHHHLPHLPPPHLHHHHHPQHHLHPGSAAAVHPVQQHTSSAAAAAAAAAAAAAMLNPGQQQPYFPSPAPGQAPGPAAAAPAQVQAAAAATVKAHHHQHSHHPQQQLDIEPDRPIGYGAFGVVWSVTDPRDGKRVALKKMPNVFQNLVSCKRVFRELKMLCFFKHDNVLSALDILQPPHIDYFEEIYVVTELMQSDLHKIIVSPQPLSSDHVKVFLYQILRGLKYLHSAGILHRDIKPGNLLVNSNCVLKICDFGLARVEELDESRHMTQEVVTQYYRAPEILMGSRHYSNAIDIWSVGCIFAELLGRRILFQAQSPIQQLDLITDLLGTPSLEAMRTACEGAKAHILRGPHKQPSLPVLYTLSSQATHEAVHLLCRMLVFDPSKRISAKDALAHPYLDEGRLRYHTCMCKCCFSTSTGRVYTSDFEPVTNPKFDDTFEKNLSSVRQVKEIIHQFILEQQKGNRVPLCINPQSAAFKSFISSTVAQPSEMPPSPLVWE
Briefly: Selectivity interaction (Ambit KINOMEscan and KiNATiv profiling in Jurkat cells) EUB0000090b NLK. The conditions noted are these: at 1 µM. It is filed as cell-based.

Experiment [3] concerns the target Protein arginine N-methyltransferase 3 (Homo sapiens, UniProt O60678). Conditions: at 10 µM.
Experiment [4] deals with Phosphatidylinositol 4,5-bisphosphate 3-kinase catalytic subunit alpha isoform (Homo sapiens), P42336 [E545K]. Conditions: at 10 µM.
Phosphatidylinositol 4,5-bisphosphate 3-kinase catalytic subunit alpha isoform (Homo sapiens), P42336 [E545K], sequence (P42336 whole entry E545K, canonical isoform): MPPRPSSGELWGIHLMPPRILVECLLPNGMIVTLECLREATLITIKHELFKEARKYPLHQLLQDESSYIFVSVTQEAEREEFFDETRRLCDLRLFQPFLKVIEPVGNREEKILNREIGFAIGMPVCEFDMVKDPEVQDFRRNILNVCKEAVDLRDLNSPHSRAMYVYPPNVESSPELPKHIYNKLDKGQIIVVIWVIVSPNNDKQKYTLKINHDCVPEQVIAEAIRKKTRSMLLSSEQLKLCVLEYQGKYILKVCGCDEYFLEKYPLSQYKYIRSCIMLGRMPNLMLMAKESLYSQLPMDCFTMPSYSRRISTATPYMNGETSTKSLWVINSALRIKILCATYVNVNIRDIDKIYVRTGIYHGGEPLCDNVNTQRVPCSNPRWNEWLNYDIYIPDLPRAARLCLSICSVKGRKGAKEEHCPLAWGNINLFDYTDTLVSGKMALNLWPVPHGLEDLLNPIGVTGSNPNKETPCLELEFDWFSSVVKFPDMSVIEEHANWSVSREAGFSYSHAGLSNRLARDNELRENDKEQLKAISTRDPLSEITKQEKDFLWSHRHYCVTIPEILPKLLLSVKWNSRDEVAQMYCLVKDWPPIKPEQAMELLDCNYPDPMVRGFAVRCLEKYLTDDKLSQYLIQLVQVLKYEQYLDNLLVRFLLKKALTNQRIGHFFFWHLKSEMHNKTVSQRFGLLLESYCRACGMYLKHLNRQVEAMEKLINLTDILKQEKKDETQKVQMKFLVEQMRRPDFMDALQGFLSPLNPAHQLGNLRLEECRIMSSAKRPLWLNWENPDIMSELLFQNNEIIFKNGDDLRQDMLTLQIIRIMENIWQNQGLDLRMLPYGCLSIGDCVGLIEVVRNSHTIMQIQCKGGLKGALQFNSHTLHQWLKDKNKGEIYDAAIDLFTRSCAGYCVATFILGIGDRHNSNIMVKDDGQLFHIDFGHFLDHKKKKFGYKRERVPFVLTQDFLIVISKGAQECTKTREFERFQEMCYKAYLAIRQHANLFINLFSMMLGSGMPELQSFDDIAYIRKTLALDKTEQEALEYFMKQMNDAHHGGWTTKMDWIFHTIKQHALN
The target of experiment [5] is Rho-associated protein kinase 2 (Homo sapiens, UniProt O75116). Briefly: Selectivity interaction (ActivX KiNativ screen (kinase selectivity in THP-1 cell lysates)) EUB0000639a ROCK2. It is filed as subcellular. Conditions: lysate.
Rho-associated protein kinase 2, sequence (O75116 whole entry, looked up): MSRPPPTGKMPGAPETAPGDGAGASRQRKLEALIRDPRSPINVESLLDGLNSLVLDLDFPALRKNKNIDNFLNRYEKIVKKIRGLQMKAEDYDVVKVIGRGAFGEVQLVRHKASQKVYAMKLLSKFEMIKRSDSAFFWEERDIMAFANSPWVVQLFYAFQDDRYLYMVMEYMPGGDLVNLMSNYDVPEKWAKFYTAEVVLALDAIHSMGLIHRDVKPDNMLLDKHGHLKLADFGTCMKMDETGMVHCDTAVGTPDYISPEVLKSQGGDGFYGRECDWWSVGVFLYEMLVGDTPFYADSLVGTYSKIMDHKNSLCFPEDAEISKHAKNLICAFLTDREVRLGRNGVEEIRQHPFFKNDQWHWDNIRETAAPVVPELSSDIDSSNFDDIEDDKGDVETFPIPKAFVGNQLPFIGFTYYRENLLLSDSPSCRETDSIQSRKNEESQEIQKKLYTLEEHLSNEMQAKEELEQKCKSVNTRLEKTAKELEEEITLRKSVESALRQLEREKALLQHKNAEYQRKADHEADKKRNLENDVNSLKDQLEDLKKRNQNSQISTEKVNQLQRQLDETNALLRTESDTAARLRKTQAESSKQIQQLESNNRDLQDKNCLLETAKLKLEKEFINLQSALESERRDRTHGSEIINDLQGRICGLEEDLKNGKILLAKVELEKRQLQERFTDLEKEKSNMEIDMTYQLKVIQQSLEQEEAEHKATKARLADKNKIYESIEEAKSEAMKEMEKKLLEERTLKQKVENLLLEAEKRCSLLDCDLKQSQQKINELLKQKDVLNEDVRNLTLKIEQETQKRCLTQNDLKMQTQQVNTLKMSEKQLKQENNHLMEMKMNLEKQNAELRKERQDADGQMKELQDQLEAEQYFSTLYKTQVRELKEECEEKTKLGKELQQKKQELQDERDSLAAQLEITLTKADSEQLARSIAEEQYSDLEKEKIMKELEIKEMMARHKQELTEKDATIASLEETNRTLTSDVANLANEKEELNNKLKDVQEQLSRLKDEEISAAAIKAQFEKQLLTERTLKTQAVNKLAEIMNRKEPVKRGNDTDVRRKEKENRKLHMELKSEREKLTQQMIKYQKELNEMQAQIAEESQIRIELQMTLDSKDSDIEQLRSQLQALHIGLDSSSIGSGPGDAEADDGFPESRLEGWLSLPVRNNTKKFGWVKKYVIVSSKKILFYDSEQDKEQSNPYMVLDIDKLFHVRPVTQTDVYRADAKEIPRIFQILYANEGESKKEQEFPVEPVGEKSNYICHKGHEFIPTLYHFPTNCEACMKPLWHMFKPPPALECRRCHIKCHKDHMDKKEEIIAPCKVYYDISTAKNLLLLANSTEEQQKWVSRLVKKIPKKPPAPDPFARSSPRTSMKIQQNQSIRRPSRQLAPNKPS
The target in experiment [6] is Tyrosine-protein kinase CSK (Homo sapiens) (UniProt P41240). Briefly: Selectivity interaction (KinomeScan (DiscoverX)) EUB0000229b CSK. The conditions noted are these: at 10 µM.
Tyrosine-protein kinase CSK (Homo sapiens), sequence (P41240 2-450 limits assumed): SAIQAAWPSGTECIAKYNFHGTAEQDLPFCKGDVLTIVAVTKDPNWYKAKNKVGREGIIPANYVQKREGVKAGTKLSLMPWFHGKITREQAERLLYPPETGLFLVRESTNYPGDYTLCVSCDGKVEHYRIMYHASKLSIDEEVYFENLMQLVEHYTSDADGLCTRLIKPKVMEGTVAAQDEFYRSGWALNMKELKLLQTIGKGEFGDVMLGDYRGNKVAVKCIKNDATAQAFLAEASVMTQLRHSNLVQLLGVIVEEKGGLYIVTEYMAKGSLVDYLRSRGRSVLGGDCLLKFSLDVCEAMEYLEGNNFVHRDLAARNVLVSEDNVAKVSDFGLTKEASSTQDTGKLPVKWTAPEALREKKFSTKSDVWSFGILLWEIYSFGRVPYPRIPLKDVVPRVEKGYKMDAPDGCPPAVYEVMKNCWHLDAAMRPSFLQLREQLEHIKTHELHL
For experiment [7], the target named is T3, Serine/threonine-protein kinase Nek10 (Homo sapiens) (UniProt Q6ZWH5).
T3 sequence (whole entry): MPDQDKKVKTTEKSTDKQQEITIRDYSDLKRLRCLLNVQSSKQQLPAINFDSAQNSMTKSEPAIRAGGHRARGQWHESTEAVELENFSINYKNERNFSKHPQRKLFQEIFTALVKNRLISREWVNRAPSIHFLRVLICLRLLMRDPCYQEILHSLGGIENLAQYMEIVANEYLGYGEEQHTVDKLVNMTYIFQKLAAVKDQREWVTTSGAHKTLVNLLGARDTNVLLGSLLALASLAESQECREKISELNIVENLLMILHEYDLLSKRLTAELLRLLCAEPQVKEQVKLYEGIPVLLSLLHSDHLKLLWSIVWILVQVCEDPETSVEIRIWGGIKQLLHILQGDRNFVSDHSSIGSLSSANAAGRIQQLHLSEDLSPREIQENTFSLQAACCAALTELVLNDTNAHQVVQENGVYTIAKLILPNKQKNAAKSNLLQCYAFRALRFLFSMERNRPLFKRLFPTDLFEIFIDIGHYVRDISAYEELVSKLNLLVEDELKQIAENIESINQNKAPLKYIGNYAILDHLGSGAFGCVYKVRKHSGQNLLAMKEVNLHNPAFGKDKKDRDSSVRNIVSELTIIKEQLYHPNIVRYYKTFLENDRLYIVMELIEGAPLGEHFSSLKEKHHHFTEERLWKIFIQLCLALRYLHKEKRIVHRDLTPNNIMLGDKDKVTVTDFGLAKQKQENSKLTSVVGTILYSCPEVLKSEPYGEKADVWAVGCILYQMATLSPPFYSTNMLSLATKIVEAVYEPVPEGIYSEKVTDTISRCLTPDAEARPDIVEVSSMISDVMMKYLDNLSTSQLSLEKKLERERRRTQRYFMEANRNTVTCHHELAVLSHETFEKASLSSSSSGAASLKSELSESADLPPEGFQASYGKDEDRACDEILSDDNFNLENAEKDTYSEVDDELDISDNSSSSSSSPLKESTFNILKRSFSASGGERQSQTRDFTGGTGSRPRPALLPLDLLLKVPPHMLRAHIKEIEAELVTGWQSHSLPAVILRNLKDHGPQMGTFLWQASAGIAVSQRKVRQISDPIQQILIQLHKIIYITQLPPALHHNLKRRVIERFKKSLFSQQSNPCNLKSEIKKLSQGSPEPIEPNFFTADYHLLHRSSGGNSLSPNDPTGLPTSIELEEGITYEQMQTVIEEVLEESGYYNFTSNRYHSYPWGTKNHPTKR
The experiment in a line: Selectivity interaction (KinomeScan (DiscoverX)) EUB0000229b NEK10. Conditions: at 10 µM.

Experiment [8] concerns the target Ephrin type-A receptor 4 (Homo sapiens, UniProt P54764). Briefly: Selectivity interaction (KinomeScan (DiscoverX)) EUB0001619a EPHA4. Conditions: at 1 µM.
In experiment [9] the target is Calcium/calmodulin-dependent protein kinase type II subunit gamma (Homo sapiens) (UniProt Q13555). The experiment in a line: Selectivity interaction (KinomeScan (DiscoverX)) EUB0000618a CAMK2G. Conditions: at 10 µM.
Calcium/calmodulin-dependent protein kinase type II subunit gamma (Homo sapiens), sequence (Q13555 whole entry): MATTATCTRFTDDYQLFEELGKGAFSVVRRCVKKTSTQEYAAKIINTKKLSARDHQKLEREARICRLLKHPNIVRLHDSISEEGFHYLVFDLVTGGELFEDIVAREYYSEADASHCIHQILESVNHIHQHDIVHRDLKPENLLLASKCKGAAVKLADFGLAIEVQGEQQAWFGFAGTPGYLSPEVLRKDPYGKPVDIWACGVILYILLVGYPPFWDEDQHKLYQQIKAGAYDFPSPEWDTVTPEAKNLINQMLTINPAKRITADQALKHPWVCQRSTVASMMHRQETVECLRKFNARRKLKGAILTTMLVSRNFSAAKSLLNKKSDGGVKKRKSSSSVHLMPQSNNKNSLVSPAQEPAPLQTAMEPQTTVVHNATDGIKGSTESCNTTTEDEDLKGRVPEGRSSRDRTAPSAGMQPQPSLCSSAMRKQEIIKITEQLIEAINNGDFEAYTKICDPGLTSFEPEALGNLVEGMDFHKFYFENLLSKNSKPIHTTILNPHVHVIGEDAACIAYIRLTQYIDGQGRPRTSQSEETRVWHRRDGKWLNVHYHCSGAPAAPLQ

Ephrin type-A receptor 4, sequence (P54764 whole entry): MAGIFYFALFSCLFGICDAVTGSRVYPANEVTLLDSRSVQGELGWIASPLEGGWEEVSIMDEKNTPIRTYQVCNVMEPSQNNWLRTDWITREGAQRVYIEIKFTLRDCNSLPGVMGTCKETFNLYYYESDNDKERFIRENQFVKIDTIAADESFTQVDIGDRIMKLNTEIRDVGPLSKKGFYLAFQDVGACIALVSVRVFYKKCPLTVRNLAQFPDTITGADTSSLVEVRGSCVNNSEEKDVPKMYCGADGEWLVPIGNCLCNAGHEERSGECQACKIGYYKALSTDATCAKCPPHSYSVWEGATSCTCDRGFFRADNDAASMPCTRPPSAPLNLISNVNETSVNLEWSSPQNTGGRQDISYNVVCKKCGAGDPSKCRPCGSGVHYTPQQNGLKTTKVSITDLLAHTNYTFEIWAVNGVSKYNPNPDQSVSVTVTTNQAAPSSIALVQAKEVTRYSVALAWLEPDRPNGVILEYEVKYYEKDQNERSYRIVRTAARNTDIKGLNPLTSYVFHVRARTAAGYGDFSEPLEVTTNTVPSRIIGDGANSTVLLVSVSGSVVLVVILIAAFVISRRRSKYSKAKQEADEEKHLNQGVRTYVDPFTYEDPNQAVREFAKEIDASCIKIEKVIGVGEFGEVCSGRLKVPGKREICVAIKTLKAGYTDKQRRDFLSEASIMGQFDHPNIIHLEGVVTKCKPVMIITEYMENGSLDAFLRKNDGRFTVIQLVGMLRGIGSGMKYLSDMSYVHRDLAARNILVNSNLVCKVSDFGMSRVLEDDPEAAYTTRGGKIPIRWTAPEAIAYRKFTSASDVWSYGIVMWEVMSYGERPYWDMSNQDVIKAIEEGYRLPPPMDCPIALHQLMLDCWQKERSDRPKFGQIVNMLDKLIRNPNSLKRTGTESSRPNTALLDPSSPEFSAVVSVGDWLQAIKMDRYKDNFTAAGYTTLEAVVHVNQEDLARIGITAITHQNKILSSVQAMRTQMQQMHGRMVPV
Protein arginine N-methyltransferase 3, sequence (O60678 2-531 limits assumed): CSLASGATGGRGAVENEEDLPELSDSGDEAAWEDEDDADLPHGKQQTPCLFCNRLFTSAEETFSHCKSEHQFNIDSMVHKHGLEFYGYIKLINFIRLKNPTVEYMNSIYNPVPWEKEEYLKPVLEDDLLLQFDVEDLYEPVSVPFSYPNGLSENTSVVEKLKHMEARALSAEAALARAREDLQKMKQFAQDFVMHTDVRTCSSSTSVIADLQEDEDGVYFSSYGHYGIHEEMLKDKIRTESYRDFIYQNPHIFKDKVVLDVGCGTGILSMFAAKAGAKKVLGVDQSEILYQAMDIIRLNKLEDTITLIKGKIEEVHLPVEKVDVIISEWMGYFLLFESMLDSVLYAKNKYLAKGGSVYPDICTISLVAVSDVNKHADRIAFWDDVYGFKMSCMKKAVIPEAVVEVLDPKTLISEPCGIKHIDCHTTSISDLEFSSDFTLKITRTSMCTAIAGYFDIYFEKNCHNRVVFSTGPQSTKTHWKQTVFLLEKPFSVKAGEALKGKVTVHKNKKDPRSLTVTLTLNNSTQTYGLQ

Turning to `Cc1cc([C@@H](C)Nc2ccccc2C(=O)O)c2nc(N3CCOCC3)cc(=O)n2c1` [AZD-6482], the % of control in experiment [1] stood at 100%.
The compound `CN(C)C/C=C/C(=O)Nc1ccc(C(=O)N2CCCC(Nc3ncc(Cl)c(-c4c[nH]c5ccccc45)n3)C2)cc1` (stereo not drawn) had a % of control in experiment [2] of 52%.
For `CNCCN1CCC(c2cc(CN(C)C(=O)c3cccc(Oc4ccccc4)c3)ccn2)CC1`, the % activity in experiment [3] is above 90%.
`CNC(=O)Nc1ccc(-c2nc(N3CC4CCC(C3)O4)c3cnn(C4CCC5(CC4)OCCO5)c3n2)cc1` showed a % of control in experiment [4] of 11%.
Turning to `CC[C@@H]1[C@H](F)C(=O)N[C@@H]1COc1nccc2cc(C(N)=O)c(OC)cc12` [ZIMLOVISERTIB], the % of inhibition is 12.6% in experiment [5] (at 0.01 µM); -4.3% in experiment [5] (at 0.04 µM); -10.6% in experiment [5] (at 0.2 µM); 18.3% in [5] (at 1 µM); 53.9% in experiment [5] (at 5 µM).
On to `COc1cc(N(C)c2ccnc3ccc(C(F)(F)F)cc23)cc(OC)c1OC`, for which the % binding in experiment [6] was 91%; in experiment [7], 100%.
The compound `N#Cc1cccc(-c2c[nH]c3ncnc(N4CCOCC4)c23)c1` yielded a % of control in experiment [8] of 100%.
As to `O[C@H]1CC[C@H](Nc2ncc3nc(Nc4c(F)cc(F)cc4F)n([C@H]4CCOC4)c3n2)CC1`, the % of control in [9] was 100%.

(Values after ChEMBL document CHEMBL5465560, “Selectivity Literature for EUbOPEN Chemogenomic Library” (2024).)
